This is an account of results in patent US11286263B2, “Macrocyclic fluorine substituted indole derivatives” (The Broad Institute, Inc., priority 2017, dated 2022).

The target of data set [1] is MCL-1 (Homo sapiens (Human), UniProt Q07820, K194A/K197A/R201A). The data set is described as follows: Protein-protein interaction assay MCL-1/Noxa BH3 peptide (MCL-1 assay), TR-FRET. The format is binding. As to conditions: MCL-1/Noxa BH3 peptide TR-FRET; median. In short, it runs like this:
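TR-FRET competition between MBP-MCL-1 (173-321, 1 nM) and biotin-Noxa BH3 peptide (1 nM) with anti-MBP-Eu/streptavidin-XL665; 11 compound levels 0.1 nM–20 μM, 10 min preincubation. Incubated 1 h at 22 °C then overnight at 4 °C, pH 7 Tris buffer. 665/620 ratio normalized to DMSO and no-MCL-1; 4-parameter IC50.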
In general terms: TR-FRET usually uses a lanthanide donor and a delayed reading to cut background.

Data set [2] has as its system SUDHL5. Briefly: Induction of caspase-3/7 activity, SUDHL5 (Assay 4). The format is cell-based. To be noted: SUDHL5 cells. The essentials: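 DLBCL lines treated with compounds for 3 h at 37° C.; caspase-3/7 activity read by Caspase-Glo 3/7 luminescence. Medium-only background subtracted; EC50 fitted with bottom fixed at 1 and top set to reference compound's maximal induction.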

Data set [3] has as its system A2780. The data set is described as follows: Antiproliferation assay A2780 (Assay 7). The format is cell-based. To be noted: A2780 cells, CellTiter-Glo, single determinations, read-out: IC50 Antiproli A2780. The essentials: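 Cells were exposed to compounds for 72 h at 37 °C in a humidified incubator, with rim wells excluded. Viability was read by CellTiter-Glo luminescence after a 10 min incubation. A parallel day 0 plate, read the same way, gave the time-zero baseline.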
A general note: ATP-based viability assays read luminescence as a measure of living cells.

Data set [4] has as its system SUDHL5. Briefly: Induction of cytotoxicity, SUDHL5 (Assay 6). As to conditions: read-out: IC50 Cytotox SUDHL5 [M] (median), SUDHL5 cells, 5 h, CellTiter-Glo.
The subject of data set [5] is SUDHL10. Briefly: Induction of cytotoxicity, SUDHL10 (Assay 6). As to conditions: read-out: IC50 Cytotox SUDHL10 [M] (median), SUDHL10 cells, 5 h, CellTiter-Glo.
Method: In principle, compounds that induce apoptosis will concomitantly induce cell cytotoxicity. Therefore, cytotoxicity assays were run in parallel in SUDHL5 and SUDHL10 cells.
The different cell lines were plated in culture medium (RPMI 1640 [GIBCO #22400-089] supplemented with 10% Fetal Bovine Serum) at a density of 3,300 cells in 30 μl/well in a sterile, solid black, flat bottom, polystyrene, TC-treated 384-well microplate (Corning #3571) using Multidrop Combi Reagent Dispenser. As a control, medium without cells was also added to the plate. Cells were incubated in a humidified incubator at 37° C. overnight. On the next day, the cells were treated with compounds (stock solution, 10 mM in DMSO) using the HP D300 Digital Dispenser in a concentration range of 3.3×10e-5 M (33 μM) to 5×10e-9 M (5 nM) in a single-dot curve with at least 16 dilutions and a DMSO concentration of 0.33%. Rim wells were excluded. The cells were incubated for 5 h hours in a humidified incubator at 37° C. After this incubation, 30 μl of CellTiter-Glo® Luminescent Cell Viability reagent (Promega, G7573) was added to each well using the Multidrop Combi Reagent Dispenser, followed by 15 min incubation on a shaker at room temperature. Finally, luminescence was read at 0.1 ms, with a gain of 3000 using the PHERAstar FS microplate reader (BMG Labtech).
The Bella DRC Master Sheet was used to calculate IC50s, with fixed CI=0 and C0=1.
Setting [6] is: Homo sapiens, SU-DHL-5, 3 h, Caspase-Glo 3/7, median.

Counter-ions that a name gives are not always drawn. Like-named read-outs stand apart in the source and are kept apart here.

Chain of MCL-1 (Q07820 whole entry K194A/K197A/R201A, looked up): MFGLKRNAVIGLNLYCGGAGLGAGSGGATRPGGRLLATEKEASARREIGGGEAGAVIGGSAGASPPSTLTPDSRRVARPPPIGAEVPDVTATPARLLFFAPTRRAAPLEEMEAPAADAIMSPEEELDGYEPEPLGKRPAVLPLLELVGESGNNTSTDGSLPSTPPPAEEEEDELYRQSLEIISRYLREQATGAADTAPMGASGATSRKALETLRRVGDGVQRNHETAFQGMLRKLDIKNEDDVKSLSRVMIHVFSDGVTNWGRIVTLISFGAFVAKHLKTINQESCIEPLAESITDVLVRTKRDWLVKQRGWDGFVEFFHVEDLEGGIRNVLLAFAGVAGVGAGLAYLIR

In the case of `CCc1c2c(nn1C)COCCCCn1c(C(=O)O)c(CCCOc3cccc4cc(F)ccc34)c3ccc(F)c-2c31` (single isomer, unassigned; enantiomer 1) [Example 22, 3-ethyl-4-fluoro-7-{3-[(6-fluoronaphthalen-1-yl)oxy]propyl}-2-methyl-2,10,11,12,13,15-hexahydropyrazolo[4′,3′:9,10][1,6]oxazacycloundecino[8,7,6-hi]indole-8-carboxylic acid-N-ethylethanamine salt (enantiomer 1)], the half-inhibitory concentration (IC50) (usually the point on the concentration scale where inhibition reaches its midpoint) in data set [1] amounted to 0.45 nM; in data set [3] (Homo sapiens, A2780, 72 h), 3880 nM; in data set [4] it was 3.3e-07 M; in data set [5] it was 5.5e-07 M. Besides, the EC50 (as a rule, the concentration that produces a half-maximal response) in data set [2] (3 h, Caspase-Glo 3/7, median) is 210 nM.

For `Cc1nn(C)c2c1-c1c(F)ccc3c(CCCOc4cccc5ccccc45)c(C(=O)O)n(c13)CCCCOC2` (racemic) [Example 10, (rac)-13-fluoro-10,12-dimethyl-1-(3-(naphthalen-1-yloxy)propyl)-4,5,6,7,9,10-hexahydro-pyrazolo[4′,3′:9,10][1]oxa[6]azacycloundecino[8,7,6-hi]indole-2-carboxylic acid], the half-maximal inhibitory concentration (IC50) in data set [1] was 1.1 nM; in data set [3] (Homo sapiens, A2780, 72 h) it was greater than 33000 nM; in data set [4] (Homo sapiens, SU-DHL-5, 5 h) it was 1.8e-06 M; in data set [5] (Homo sapiens, SU-DHL10, 5 h) it was 3.6e-06 M. Besides, a half-maximal effect in data set [2] (setting [6]) (EC50) was put at 1700 nM.

Take `CCc1c2c(nn1C)COCCCCn1c(C(=O)O)c(CCCOc3cc(C)c(Cl)c(C)c3)c3ccc(F)c-2c31` (racemic) [Example 31, (rac)-1-(3-(4-chloro-3,5-dimethylphenoxy)propyl)-12-ethyl-13-fluoro-11-methyl-4,5,6,7,9,11-hexahydropyrazolo[4′,3′:9,10][1]oxa[6]azacycloundecino[8,7,6-hi]indole-2-carboxylic acid]: the 50% inhibitory concentration (IC50) in data set [1] came out at 1.8 nM; in data set [3] (Homo sapiens, A2780, 72 h) it was 12100 nM; in data set [4] (Homo sapiens, SU-DHL-5, 5 h) it was 2.9e-06 M; in data set [5] (Homo sapiens, SU-DHL10, 5 h) it was 3.6e-06 M. For the same compound, the EC50 in data set [2] (setting [6]) came out at 2500 nM.

Consider `Cc1nn(C)c2c1-c1c(F)ccc3c(CCCOc4cccc5c4CCCC5)c(C(=O)O)n(c13)CCCCOC2` (racemic) [Example 34, (rac)-13-fluoro-10,12-dimethyl-1-(3-((5,6,7,8-tetrahydronaphthalen-1-yl)oxy)propyl)-4,5,6,7,9,10-hexahydropyrazolo[4′,3′:9,10][1]oxa[6]azacycloundecino[8,7,6-hi]indole-2-carboxylic acid], for which the IC50 in data set [1] was 1.3 nM; in data set [3] (Homo sapiens, A2780, 72 h), 20900 nM; in data set [4] (Homo sapiens, SU-DHL-5, 5 h), 2.6e-06 M; in data set [5] (Homo sapiens, SU-DHL10, 5 h) it was 4.2e-06 M. Further, the EC50 in data set [2] (setting [6]) stood at 1800 nM.

“(rac)-1-(3-((2,3-dihydro-1H-inden-4-yl)oxy)propyl)-12-ethyl-13-fluoro-11-methyl-4,5,6,7,9,11-hexahydropyrazolo[4′,3′:9,10][1]oxa[6]azacycloundecino[8,7,6-hi]indole-2-carboxylic acid [Example 30]”: the IC50 amounted to 1.3 nM in data set [1] and 11200 nM in data set [3] (72 h). The compound further showed an EC50 in data set [2] (3 h, Caspase-Glo 3/7, median) of 870 nM.

`CCc1c2c(nn1C)COCCCCn1c(C(=O)O)c(CCCOc3cccc4c3CCCC4)c3ccc(F)c-2c31` (racemic) [Example 29, (rac)-12-ethyl-13-fluoro-11-methyl-1-(3-((5,6,7,8-tetrahydronaphthalen-1-yl)oxy)propyl)-4,5,6,7,9,11-hexahydropyrazolo[4′,3′:9,10][1]oxa[6]azacycloundecino[8,7,6-hi]indole-2-carboxylic acid]: the half-inhibitory concentration (IC50) in data set [1] came out at 1.5 nM; in data set [3] (Homo sapiens, A2780, 72 h), 9170 nM; in data set [4] (Homo sapiens, SU-DHL-5, 5 h), 1.2e-06 M; in data set [5] (Homo sapiens, SU-DHL10, 5 h), 1.8e-06 M. This compound also came in with an EC50 in data set [2] (setting [6]) of 1200 nM.

With `CCc1nn(C)c2c1-c1c(F)ccc3c(CCCOc4cccc5ccccc45)c(C(=O)O)n(c13)CCCCOC2` (racemic) [Example 37, (rac)-12-ethyl-13-fluoro-10-methyl-1-(3-(naphthalen-1-yloxy)propyl)-4,5,6,7,9,10-hexahydro-pyrazolo[4′,3′:9,10][1]oxa[6]azacycloundecino[8,7,6-hi]indole-2-carboxylic acid], the IC50 in data set [1] was 1.2 nM; in data set [3] (Homo sapiens, A2780, 72 h), greater than 33000 nM; in data set [4] (Homo sapiens, SU-DHL-5, 5 h), 2.1e-06 M; in data set [5] (Homo sapiens, SU-DHL10, 5 h), 4.8e-06 M. For the same compound, a half-maximal effect in data set [2] (setting [6]) (EC50) was put at 1700 nM.

For the compound `CCc1c2c(nn1C)CN(C)CCCCn1c(C(=O)O)c(CCCOc3cccc4ccccc34)c3ccc(F)c-2c31` (racemic) [Example 54, (rac)-3-ethyl-4-fluoro-2,14-dimethyl-7-[3-(1-naphthyloxy)propyl]-10,11,12,13,14,15-hexahydro-2H-pyrazolo[3′,4′:8,9][1,6]diazacycloundecino[10,11,1-hi]indole-8-carboxylic acid], the concentration for half-maximal inhibition (IC50) in data set [1] came out at 0.72 nM; in data set [4] (Homo sapiens, SU-DHL-5, 5 h) it was 4.5e-07 M; in data set [5] (Homo sapiens, SU-DHL10, 5 h), 1.4e-06 M. This compound yielded a concentration giving a half-maximal response (EC50) in data set [2] (setting [6]) of 230 nM.

On to `CCc1c2c(nn1C)COCCCCn1c(C(=O)O)c(CCCOc3cccc4cc(F)ccc34)c3ccc(F)c-2c31` (single isomer, unassigned; enantiomer 2) [Example 23, 3-ethyl-4-fluoro-7-{3-[(6-fluoronaphthalen-1-yl)oxy]propyl}-2-methyl-2,10,11,12,13,15-hexahydropyrazolo[4′,3′:9,10][1,6]oxazacycloundecino[8,7,6-hi]indole-8-carboxylic acid-N-ethylethanamine salt (enantiomer 2)], for which the half-maximal inhibitory concentration (IC50) was determined as 9.6 nM in data set [1], 3.2e-06 M in data set [4] and 9e-06 M in data set [5]. The compound also came in with an EC50 in data set [2] (3 h, Caspase-Glo 3/7, median) of 2700 nM.

For the compound `Cc1c2c(nn1C)COCCCCn1c(C(=O)O)c(CCCOc3ccc(F)c4ccccc34)c3ccc(F)c-2c31` (single isomer, unassigned; enantiomer 1) [Example 16, 4-fluoro-7-{3-[(4-fluoronaphthalen-1-yl)oxy]propyl}-2,3-dimethyl-2,10,11,12,13,15-hexahydro-pyrazolo[4′,3′:9,10][1,6]oxazacycloundecino[8,7,6-hi]indole-8-carboxylic acid (enantiomer 1)], the results for the IC50 in data set [1], in data set [4] and in data set [5] were 1.9 nM, 1.4e-06 M and 4.3e-06 M, respectively. Besides, it took 720 nM to reach a half-maximal effect in data set [2] (3 h, Caspase-Glo 3/7, median) (EC50).

For the compound `CCc1nn(C)c2c1-c1c(F)ccc3c(CCCOc4cccc5c4CCCC5)c(C(=O)O)n(c13)CCCCOC2` (racemic) [Example 44, (rac)-12-ethyl-13-fluoro-10-methyl-1-(3-((5,6,7,8-tetrahydronaphthalen-1-yl)oxy)propyl)-4,5,6,7,9,10-hexahydropyrazolo[4′,3′:9,10][1]oxa[6]azacycloundecino[8,7,6-hi]indole-2-carboxylic acid], the IC50 is 1.7 nM in data set [1]; 1.9e-06 M in data set [4] (Homo sapiens, SU-DHL-5, 5 h); 4.2e-06 M in data set [5] (Homo sapiens, SU-DHL10, 5 h). Further, the half-maximal effective concentration (EC50) in data set [2] (setting [6]) was 1600 nM.

`CCc1c2c(nn1C)CN(C)CCCCn1c(C(=O)O)c(CCCOc3cccc4c3CCCC4)c3ccc(F)c-2c31` (racemic) [Example 52, (rac)-3-ethyl-4-fluoro-2,14-dimethyl-7-[3-(5,6,7,8-tetrahydronaphthalen-1-yloxy)propyl]-10,11,12,13,14,15-hexahydro-2H-pyrazolo[3′,4′:8,9][1,6]diazacycloundecino[10,11,1-hi]indole-8-carboxylic acid]: the IC50 in data set [1] turned out to be 1.7 nM; in data set [4] (Homo sapiens, SU-DHL-5, 5 h), 4.3e-07 M; in data set [5] (Homo sapiens, SU-DHL10, 5 h), 3.1e-07 M. Further, in data set [2] (setting [6]), the midpoint of the response, the EC50, lay at 280 nM.

Regarding `Cc1c2c(nn1C)COCCCCn1c(C(=O)O)c(CCCOc3ccc(F)c4ccccc34)c3ccc(F)c-2c31` (racemic) [Example 15, (rac)-13-fluoro-1-(3-((4-fluoronaphthalen-1-yl)oxy)propyl)-11,12-dimethyl-4,5,6,7,9,11-hexahydropyrazolo[4′,3′:9,10][1]oxa[6]azacycloundecino[8,7,6-hi]indole-2-carboxylic acid], the IC50 in data set [1] is 1.3 nM; in data set [4] (Homo sapiens, SU-DHL-5, 5 h), 1.1e-06 M; in data set [5] (Homo sapiens, SU-DHL10, 5 h), 3e-06 M. In addition, the EC50 in data set [2] (setting [6]) amounted to 970 nM.

On to `CCc1c2c(nn1C)CN(C)CCCCn1c(C(=O)O)c(CCCOc3cccc4c3CCC4)c3ccc(F)c-2c31` (racemic) [Example 51, (rac)-7-[3-(2,3-dihydro-1H-inden-4-yloxy)propyl]-3-ethyl-4-fluoro-2,14-dimethyl-10,11,12,13,14,15-hexahydro-2H-pyrazolo[3′,4′:8,9][1,6]diazacycloundecino[10,11,1-hi]indole-8-carboxylic acid], for which the IC50 in data set [1] came out at 0.91 nM; in data set [4] (Homo sapiens, SU-DHL-5, 5 h), 3.6e-07 M; in data set [5] (Homo sapiens, SU-DHL10, 5 h), 3.6e-07 M. The compound also had an EC50 in data set [2] (setting [6]) of 230 nM.
